In publication PMC12713470, “Design and Synthesis of Novel Chalcone Derivatives Targeting Bladder and Liver Cancer: Cytotoxicity Evaluation and Preliminary Mechanistic Studies” (ACS Omega, 2025):

Legend:
T24 cells = assay: Morphology assay, T24; type: cell-based, human; conditions: 2.15-18.50 μM, 48 h
Experimental: (§1) For the morphology assay, 2.0 × 10^5 cells were cultured in 12-well plates for 24 h to allow adherence. After this period, the cells were treated with the chalcone at concentrations of 2.15, 4.62, 9.25, and 18.50 μM for 48 h. After treatment, the cells were examined and photographed under an inverted microscope at 200× magnification.

HepG2 cells [1] = assay: Morphology assay, HepG2; type: cell-based, human; conditions: 2.15-18.50 μM, 48 h
Experimental: as §1

[2] = tested on: HeLa, HepG2, T24, and TOV-21G; assay: MTT cytotoxicity, all evaluated cancer cells (summary); type: cell-based; conditions: Homo sapiens, read-out: IC50 values against all evaluated cancer cells
Experimental: (§2) Cytotoxicity was determined using the MTT colorimetric assay, and half-maximal inhibitory concentrations (IC50, μM) were obtained for all cell lines (Table ). The selectivity index (SI) was calculated as the ratio of IC50 MRC-5/IC50 cancer cell line. Doxorubicin was employed as a positive control due to its broad-spectrum clinical use, either alone or in combination, against hepatocellular, ovarian, cervical, and bladder cancers. −
In vitro biological assays were performed by using five human cell lines for cytotoxicity evaluation. […]
Two hours prior to end point reading, 20 μL of MTT [3-(4,5-dimethylthiazol-2-yl)-2,5-diphenyltetrazolium bromide] solution (1.0 mg/mL in sterile phosphate-buffered saline, Sigma-Aldrich) was added to each well. […] After the appropriate incubation, absorbance was measured by using a VICTOR X3 microplate reader (PerkinElmer), and data were processed with WorkOut 2.5 software at a wavelength of 490 nm. […] The percentage of cytotoxicity was calculated using the equation % cytotoxicity = [(A – B)/A] × 100, where A is the optical density (OD4 9 0) of untreated control cells and B is the OD4 9 0 of treated cells.
(§3) Cytotoxicity was expressed as the 50% cytotoxic concentration (CC5 0), representing the concentration of sample required to reduce cell viability by 50% relative to that of the untreated control.

HepG2 cells [3] = assay: Cell cycle progression (propidium iodide flow cytometry), HepG2; type: cell-based, human
Experimental: Cells were seeded in 12-well plates at a density of 1.0 × 10^5 cells per well and incubated for 24 h to allow adhesion. Following this initial incubation, the cells were treated with the chalcone at concentrations of 0.92, 2.15, 4.62, and 9.25 μM for an additional 48 h. After the treatment, the cells were washed, trypsinized, and collected along with the culture supernatant into Falcon tubes. The samples were then centrifuged at 1000 rpm for 10 min. After centrifugation, the supernatant was discarded, and the cell pellets were resuspended in 200 μL of propidium iodide staining solution before being transferred to cytometry tubes. These tubes were incubated on ice, in the dark, for 30 min. Flow cytometric analysis was performed on 20,000 events using a BD FACScalibur flow cytometer (BD Biosciences, Franklin Lakes, NJ, USA), and the data were analyzed using FlowJo software.

[4] = tested on: HepG2: human liver hepatocellular carcinoma cells; assay: MTT cytotoxicity assay on HepG2 cells; type: cell-based
Experimental: as §2
(§4) In vitro biological assays were performed by using five human cell lines for cytotoxicity evaluation. HepG2 cells (ATCC HB-8065), derived from a human hepatocellular carcinoma of the liver (person), were cultured in Dulbecco’s modified Eagle medium (DMEM) supplemented with 5% fetal bovine serum (FBS), penicillin/streptomycin (100 IU/mL), and amphotericin B (5 μg/mL), in a humidified incubator with 5% CO2 at 37 °C. These cells were plated at a concentration of 2.0 × 10^4 cells/well in 96-well microplates. MRC-5 cells (ATCC CCL-171), derived from human lung fibroblasts of a […] fetus, were cultured under the same conditions and plated at 1.0 × 10^4 cells/well. T24 cells (ATCC HTB-4), established from a transitional cell carcinoma of the bladder (person), were also cultured under identical conditions and plated at a density of 1.0 × 10^4 cells/well. TOV-21G cells (ATCC CRL-11730), derived from a primary malignant ovarian adenocarcinoma (person), were maintained in DMEM with the same supplementation and environmental conditions and plated at 5.0 × 10^4 cells/well. […]
(§5) HeLa, HepG2, MRC-5, T24, and TOV-21G cells were suspended in a culture medium supplemented with 5% fetal bovine serum (FBS) and seeded into 96-well microplates. The plates were incubated under a humidified atmosphere containing 5% CO2 at 37 °C for 24 h, allowing for adherence and monolayer formation. , Eight serial dilutions of the test samples, previously solubilized in dimethyl sulfoxide (DMSO), were prepared in DMEM supplemented with 1% FBS, covering a concentration range from […], and the results were converted to […]. The volume of DMSO in each well was limited to a final concentration not exceeding 2%. Following monolayer formation, the culture medium was aspirated and replaced with 100 μL of the diluted test samples and 100 μL of DMEM containing 1% FBS. The plates were then incubated under the same atmospheric and temperature conditions.
(§6) Two hours prior to end point reading, 20 μL of MTT [3-(4,5-dimethylthiazol-2-yl)-2,5-diphenyltetrazolium bromide] solution (1.0 mg/mL in sterile phosphate-buffered saline, Sigma-Aldrich) was added to each well. The incubation period following sample addition varied according to the cell line: 24 h for MRC-5, 48 h for T24, and 72 h for HeLa, HepG2, and TOV-21G. After the appropriate incubation, absorbance was measured by using a VICTOR X3 microplate reader (PerkinElmer), and data were processed with WorkOut 2.5 software at a wavelength of 490 nm. Formazan formation, resulting from the MTT reduction by metabolically active cells, was used as an indirect measure of cell viability. The percentage of cytotoxicity was calculated using the equation % cytotoxicity = [(A – B)/A] × 100, where A is the optical density (OD4 9 0) of untreated control cells and B is the OD4 9 0 of treated cells.
as §3

HepG2 cells [5] = assay: Clonogenic survival, HepG2; type: cell-based, human; conditions: 4.62 and 9.25 μM, 48 h treatment, 10 days colony formation
Experimental: The cells were cultured in DMEM (Sigma-Aldrich, St. Louis, USA) and supplemented with 10% fetal bovine serum (Cultilab Ltda., Campinas, Brazil) and antibiotics (amphotericin). They were incubated at 37 °C in a humidified atmosphere with 5% CO2. Control cell groups, which were not exposed to the compound, were included in the experiments and were conducted in triplicate. The chalcone was dissolved in dimethyl sulfoxide (DMSO) for the assays.
The cells were trypsinized and plated into 24-well plates at a density of 1.0 × 10^5 cells/mL. Afterward, they were treated with the chalcone at concentrations of 2.15, 4.62, 9.25, and 18.50 μM for 48 h. Following treatment, the cells were washed with Hanks’ solution and trypsinized again, and approximately 1000 cells were reseeded into 12-well plates. These cells were incubated for 10 days in a CO2 incubator to allow colony formation. After the incubation period, the culture medium was removed, and the cells were washed with Hanks’ solution. Fixation was performed using 4% formaldehyde for 20 min, followed by […] in 100% methanol for 20 min. The cells were then stained with a 0.5% crystal violet solution prepared in 25% methanol. […] Absorbance was measured at 570 nm using a spectrophotometer, and the results were expressed as the percentage of colonies formed relative to the untreated control group.

[6] = tested on: TOV-21G: human ovarian adenocarcinoma cells; assay: MTT cytotoxicity assay on TOV-21G cells; type: cell-based
Experimental: as §2, §4, §5, §6, §3

[7] = all concentrations tested (0.92–4.62 μM)

CCCc1cc(/C=C/C(=O)c2ccc(C)cc2)c(OC)c(OC)c1 [compound 3, (E)-3-(2,3-Dimethoxy-5-propylphenyl)-1-(p-tolyl)-prop-2-en-1-one]
morphology, T24 (T24 cells): reduction in cell density was observed
morphology, HepG2 (HepG2 cells [1]): reduction in cell density was observed
IC50 [2]: 3.03 to 5.92 µM
fraction of cells in sub-G1, HepG2 (HepG2 cells [3]; 0.92–4.62 μM): remained stable
G2/M phase, HepG2 (HepG2 cells [3]; [7]): corresponding reduction
population of cells in the G0/G1 phase, HepG2 (HepG2 cells [3]; [7]): significant increase
IC50 ([4]; Homo sapiens, HepG2, MTT, 72 h incubation, n = 3, NA: noncytotoxic at the concentrations tested): 4.5 ± 1.2 µM
SI (HepG2) ([4]; IC50 MRC-5/IC50 HepG2): 12.2
colony formation, HepG2 (HepG2 cells [5]): reduction in colony formation
IC50 ([6]; Homo sapiens, TOV21G, MTT, 72 h incubation, n = 3, NA: noncytotoxic at the concentrations tested): 3 ± 2.6 µM
SI (TOV-21G) ([6]; IC50 MRC-5/IC50 TOV-21G): 18.2
